Test results taken from ChEMBL document CHEMBL1201862, “PubChem BioAssay data set” (2004).
Activity calls are given as the source filed them.

Tests used:
Paired box protein Pax-8 = Paired box protein Pax-8 (Homo sapiens, UniProt Q06710); assay: inhibitors of PAX8-driven TPO luciferase reporter, dose response, RMG-I cells, cherry-pick (AID 687027); assay type: functional, cell-based;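 note: luciferase reporter driven by Pax8 target thyroperoxidase promoter measured by SteadyGlo luminescence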
[1] = non-specific cell cytotoxicity, dose response, cytotoxicity control for PAX8 inhibitor project, plate reader, dry powder samples (AID 743021); assay type: functional, cell-based
[2] = HEp-2 cell cytotoxicity, dose response, cytotoxicity control for RSV inhibitor project, HTS (AID 2410); assay type: functional; conditions: human respiratory syncytial virus
[3] = target: T1, Voltage-gated N-type calcium channel alpha-1B subunit/Amyloid beta A4 precursor protein-binding family A member 1 (Homo sapiens, UniProt Q00975+Q02410); assay type: protein assay
[4] = target: T1, Voltage-gated N-type calcium channel alpha-1B subunit/Amyloid beta A4 precursor protein-binding family A member 1; assay type: protein assay; remark: listed apart in the source
[5] = target: T2, Calpain-2 catalytic subunit (Sus scrofa, UniProt P43367); assay: pig calpain II inhibitor potency, dose response, biochemical, fluorogenic peptide substrate (AID 1420); assay type: functional
T2 sequence (P43367 whole entry): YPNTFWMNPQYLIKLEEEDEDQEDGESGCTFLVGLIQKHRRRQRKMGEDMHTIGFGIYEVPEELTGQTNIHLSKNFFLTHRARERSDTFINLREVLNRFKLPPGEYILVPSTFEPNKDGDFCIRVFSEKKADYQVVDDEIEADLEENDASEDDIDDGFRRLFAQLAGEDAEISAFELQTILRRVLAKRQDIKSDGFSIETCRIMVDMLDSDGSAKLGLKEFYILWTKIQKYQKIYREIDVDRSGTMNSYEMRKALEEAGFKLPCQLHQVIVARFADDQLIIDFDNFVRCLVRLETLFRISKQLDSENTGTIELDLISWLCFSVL

Streptokinase A = target: T3, Streptokinase A (Streptococcus pyogenes serotype M1, UniProt P10520); assay: S. pyogenes streptokinase expression inhibitors, potency, dose response, plasminogen activation absorbance, OD405 (AID 1914); assay type: functional, Streptococcus pyogenes M1 GAS;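 note: secreted streptokinase activity via plasminogen activation per viability signal from cell pellet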
T3 sequence (P10520 whole entry): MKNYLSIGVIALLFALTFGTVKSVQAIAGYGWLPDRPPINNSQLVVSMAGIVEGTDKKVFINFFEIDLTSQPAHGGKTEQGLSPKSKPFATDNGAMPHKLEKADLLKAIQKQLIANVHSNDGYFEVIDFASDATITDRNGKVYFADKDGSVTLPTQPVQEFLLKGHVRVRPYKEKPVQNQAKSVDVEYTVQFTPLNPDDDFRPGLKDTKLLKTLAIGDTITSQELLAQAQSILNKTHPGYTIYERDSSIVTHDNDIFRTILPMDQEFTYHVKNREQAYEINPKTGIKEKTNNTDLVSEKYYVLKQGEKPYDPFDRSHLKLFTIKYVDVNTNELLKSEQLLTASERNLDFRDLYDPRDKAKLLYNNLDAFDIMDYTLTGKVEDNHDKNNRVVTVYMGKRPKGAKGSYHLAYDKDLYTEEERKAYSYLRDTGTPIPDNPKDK

Streptococcus = assay: Group A Streptococcus viability loss, dose response, counter-screen for streptokinase expression inhibitor project, luminescence, BacTiterGlo (AID 1915); assay type: functional, organism-based;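 note: potency for reduction of bacterial viability or growth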
[6] = THP-1 cell cytotoxicity, dose response, cytotoxicity control for Vif-APOBEC3G degradation inhibitor project, THP-1 cells (AID 1117359); assay type: functional; conditions: Human immunodeficiency virus 1, THP-1
[7] = tested on: Streptococcus sp. 'group A'; assay: growth inhibition of control SK(-) GAS strain, dose response, counter-screen for streptokinase expression inhibitor project, luminescence, kanamycin, BacTiterGlo, confirmation (AID 1900); assay type: functional, organism-based
Fatty acid synthase [8] = target: T4, Fatty acid synthase (Homo sapiens, UniProt P49327); assay: FAS thioesterase domain inhibitors, dose response, biochemical, endpoint fluorescence intensity, uHTS hits (AID 624327); assay type: functional;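 note: fluorescence from hydrolysis of an O-methyl fluorescein acyl ester substrate by the enzyme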
Fatty acid synthase [9] = target: T4, Fatty acid synthase; assay: FAS thioesterase domain inhibitors, dose response, biochemical, kinetic fluorescence intensity (AID 624326); assay type: functional;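 note: rate of fluorescence rise from hydrolysis of a fluorogenic O-methyl fluorescein ester substrate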
Large T antigen = Large T antigen (Simian virus 40, UniProt P03070); assay type: functional, Betapolyomavirus macacae;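 note: Confirmatory-stage PubChem screen for compounds that inhibit SV40 T antigen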
[10] = inhibitors of PGC1a acetylation in cells, dose response, cell-based, cherry-picked samples (AID 720514); assay type: functional;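 note: potency may reflect raised or lowered acetylation signal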

T4 sequence (P49327 whole entry, the tested form may be a part): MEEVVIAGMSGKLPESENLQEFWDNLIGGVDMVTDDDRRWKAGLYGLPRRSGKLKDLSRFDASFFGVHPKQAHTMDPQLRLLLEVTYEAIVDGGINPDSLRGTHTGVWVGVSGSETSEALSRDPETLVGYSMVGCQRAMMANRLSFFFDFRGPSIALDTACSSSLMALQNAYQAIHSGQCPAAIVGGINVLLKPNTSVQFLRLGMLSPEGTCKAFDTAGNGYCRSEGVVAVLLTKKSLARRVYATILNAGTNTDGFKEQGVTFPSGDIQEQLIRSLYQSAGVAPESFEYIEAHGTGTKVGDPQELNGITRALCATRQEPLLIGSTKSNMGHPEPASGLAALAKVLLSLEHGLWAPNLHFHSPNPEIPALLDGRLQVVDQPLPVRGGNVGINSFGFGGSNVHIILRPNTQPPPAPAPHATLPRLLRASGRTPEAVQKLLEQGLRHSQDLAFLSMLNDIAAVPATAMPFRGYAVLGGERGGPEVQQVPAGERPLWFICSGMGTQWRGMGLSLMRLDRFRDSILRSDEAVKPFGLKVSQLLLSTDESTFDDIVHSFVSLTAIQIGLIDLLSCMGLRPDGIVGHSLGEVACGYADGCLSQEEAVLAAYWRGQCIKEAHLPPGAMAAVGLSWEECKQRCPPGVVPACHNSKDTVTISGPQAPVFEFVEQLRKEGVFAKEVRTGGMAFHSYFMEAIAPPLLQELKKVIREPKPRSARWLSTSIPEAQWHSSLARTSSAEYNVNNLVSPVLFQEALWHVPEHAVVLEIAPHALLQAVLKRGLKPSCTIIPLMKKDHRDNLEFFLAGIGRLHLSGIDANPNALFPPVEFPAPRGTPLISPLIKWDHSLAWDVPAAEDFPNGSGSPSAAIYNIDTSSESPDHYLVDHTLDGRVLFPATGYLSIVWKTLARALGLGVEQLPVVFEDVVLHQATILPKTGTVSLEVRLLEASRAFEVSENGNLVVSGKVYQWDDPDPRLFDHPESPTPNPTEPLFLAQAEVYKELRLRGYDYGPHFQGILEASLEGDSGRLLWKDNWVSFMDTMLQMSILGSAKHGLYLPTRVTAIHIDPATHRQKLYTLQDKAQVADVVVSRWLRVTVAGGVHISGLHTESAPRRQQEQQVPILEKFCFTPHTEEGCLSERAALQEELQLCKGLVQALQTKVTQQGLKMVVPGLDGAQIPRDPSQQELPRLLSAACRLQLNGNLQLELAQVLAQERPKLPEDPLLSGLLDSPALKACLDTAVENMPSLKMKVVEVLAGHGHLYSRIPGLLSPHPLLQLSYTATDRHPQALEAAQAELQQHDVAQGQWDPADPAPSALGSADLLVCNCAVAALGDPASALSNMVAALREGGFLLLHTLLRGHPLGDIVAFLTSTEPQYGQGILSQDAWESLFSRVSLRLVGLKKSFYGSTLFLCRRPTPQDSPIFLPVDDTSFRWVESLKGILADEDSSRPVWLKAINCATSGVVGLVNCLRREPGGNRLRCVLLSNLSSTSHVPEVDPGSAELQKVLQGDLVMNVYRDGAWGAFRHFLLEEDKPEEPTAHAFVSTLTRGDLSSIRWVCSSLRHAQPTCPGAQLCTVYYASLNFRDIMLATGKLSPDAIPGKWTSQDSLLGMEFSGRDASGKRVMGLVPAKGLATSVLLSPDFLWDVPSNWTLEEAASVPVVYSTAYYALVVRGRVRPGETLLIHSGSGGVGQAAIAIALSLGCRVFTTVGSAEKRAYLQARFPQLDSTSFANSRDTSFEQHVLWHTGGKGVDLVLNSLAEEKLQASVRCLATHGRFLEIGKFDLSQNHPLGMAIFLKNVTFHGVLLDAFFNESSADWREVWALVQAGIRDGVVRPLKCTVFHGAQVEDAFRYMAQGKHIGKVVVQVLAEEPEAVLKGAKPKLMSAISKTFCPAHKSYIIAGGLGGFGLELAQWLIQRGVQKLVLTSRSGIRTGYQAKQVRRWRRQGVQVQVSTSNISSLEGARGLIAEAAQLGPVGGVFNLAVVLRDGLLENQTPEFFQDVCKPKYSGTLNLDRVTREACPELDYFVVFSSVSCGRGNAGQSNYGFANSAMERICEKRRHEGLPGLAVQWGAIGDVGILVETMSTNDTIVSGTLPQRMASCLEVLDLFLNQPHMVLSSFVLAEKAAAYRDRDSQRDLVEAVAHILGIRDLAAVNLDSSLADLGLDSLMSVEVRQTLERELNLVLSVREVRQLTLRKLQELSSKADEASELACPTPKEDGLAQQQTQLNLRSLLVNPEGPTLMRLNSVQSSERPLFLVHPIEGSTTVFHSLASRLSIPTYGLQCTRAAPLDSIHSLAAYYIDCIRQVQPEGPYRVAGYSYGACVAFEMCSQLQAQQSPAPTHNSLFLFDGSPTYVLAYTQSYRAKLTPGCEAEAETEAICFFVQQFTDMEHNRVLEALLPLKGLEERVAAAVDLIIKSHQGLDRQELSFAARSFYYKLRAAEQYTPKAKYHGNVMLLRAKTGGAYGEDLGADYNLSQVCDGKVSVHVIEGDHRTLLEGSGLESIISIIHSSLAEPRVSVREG
Chain of Paired box protein Pax-8 (Q06710 whole entry): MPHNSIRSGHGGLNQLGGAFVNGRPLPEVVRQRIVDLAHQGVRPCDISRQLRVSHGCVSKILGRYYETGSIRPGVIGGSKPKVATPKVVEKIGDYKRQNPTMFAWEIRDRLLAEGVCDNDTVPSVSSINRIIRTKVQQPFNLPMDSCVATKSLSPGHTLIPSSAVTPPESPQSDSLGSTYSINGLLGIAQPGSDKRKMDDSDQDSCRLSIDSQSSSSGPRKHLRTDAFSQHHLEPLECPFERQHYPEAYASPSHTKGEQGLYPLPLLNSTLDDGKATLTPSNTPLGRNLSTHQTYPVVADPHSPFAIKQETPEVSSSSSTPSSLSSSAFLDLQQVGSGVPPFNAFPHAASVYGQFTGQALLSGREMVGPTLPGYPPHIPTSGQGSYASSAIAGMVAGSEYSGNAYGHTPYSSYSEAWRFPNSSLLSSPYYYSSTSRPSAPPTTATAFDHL
Chain of Large T antigen (P03070 whole entry): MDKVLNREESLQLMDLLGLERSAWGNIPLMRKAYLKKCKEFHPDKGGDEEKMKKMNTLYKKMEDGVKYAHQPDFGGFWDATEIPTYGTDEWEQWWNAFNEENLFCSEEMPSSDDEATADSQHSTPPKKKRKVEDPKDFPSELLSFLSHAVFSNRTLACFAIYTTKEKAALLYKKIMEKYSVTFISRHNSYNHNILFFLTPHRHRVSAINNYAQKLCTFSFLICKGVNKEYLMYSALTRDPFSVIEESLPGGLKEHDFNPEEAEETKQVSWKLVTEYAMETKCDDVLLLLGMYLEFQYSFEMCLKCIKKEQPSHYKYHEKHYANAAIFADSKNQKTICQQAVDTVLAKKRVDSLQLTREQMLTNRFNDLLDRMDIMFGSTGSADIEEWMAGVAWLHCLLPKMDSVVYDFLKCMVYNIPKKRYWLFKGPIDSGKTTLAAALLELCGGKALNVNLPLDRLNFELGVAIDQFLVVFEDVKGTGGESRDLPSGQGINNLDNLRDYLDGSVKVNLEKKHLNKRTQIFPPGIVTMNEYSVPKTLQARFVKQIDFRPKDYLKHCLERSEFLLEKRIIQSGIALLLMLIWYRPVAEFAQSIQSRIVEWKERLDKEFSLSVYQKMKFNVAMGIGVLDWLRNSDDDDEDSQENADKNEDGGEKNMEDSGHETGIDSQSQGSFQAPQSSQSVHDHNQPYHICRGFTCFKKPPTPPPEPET

Q: What does the source list for `CC1=C(N2CC2)C(=O)C(CO)=C(N2CC2)C1=O`?
A: AC50 (Paired box protein Pax-8): < 0.26 µM (active); AC50 [1]: 14.8 µM (active)

Q: Which IC50 (cells) does the source give for `O=S(=O)(/C=C/c1ccccc1)N1CCC(c2nc(O)c3nnn(Cc4ccc(F)cc4)c3n2)CC1` here?
A: 12 µM (active)

Q: And the CC50 [2]?
A: 19.1 µM (active)

Q: Which results are given for `Cc1c(Cc2ccccc2)sc(NC(=O)c2ccco2)c1C(N)=O`?
A: IC50 [3]: 9.09 µM (active); IC50 [4]: > 50 µM (inactive)

Q: For `Cc1ccc2c(CC(=O)Nc3cccc(S(=O)(=O)N4CCOCC4)c3)coc2c1`, which IC50 [5] is on record?
A: 25.9 µM (not active)

Q: Which results are given for `C=CCN1C(=O)NC(=O)/C(=C(/CC)Nc2ccc(N(C)C)cc2)C1=O`?
A: EC50 (Streptokinase A): > 150 µM (not active); EC50 (Streptococcus): 9.73 µM (active); CC50 [6]: > 40 µM (active); EC50 [7]: 5.65 µM (active)

Q: Which IC50 [5] does the source give for `Cc1nc(SCC(=O)Nc2ccccc2)c2oc3ccccc3c2n1` here?
A: > 50 µM (not active)

Q: For `Cc1ccc([N+](=O)[O-])cc1NC(=O)C(Sc1ccccc1)c1ccccc1` (stereo not drawn), which IC50 [5] is on record?
A: > 50 µM (not active)

Q: What about the IC50 (Fatty acid synthase [8]) of the same compound?
A: 2.24 µM (active)

Q: What about the IC50 (Fatty acid synthase [9]) of the same compound?
A: 1.73 µM (active)

Q: With `CCN1C(=O)/C(=C\c2ccc([N+](=O)[O-])s2)C(=O)NC1=S` as the compound, how does the IC50 (Large T antigen) read?
A: 91.6 µM (active)

Q: What about the CC50 [6] of the same compound?
A: > 40 µM (active)

Q: With `CC[C@H](C)[C@H](NC(=O)c1ccc(Cl)cc1)C(=O)OCC(=O)c1ccc2c(c1)NC(=O)CO2` as the compound, how does the AC50 [10] read?
A: 6.76 µM (active)
